Measured values: patent EP0012543A1, “Compositions containing 1,3-dioxolanes as emollients” (IMPERIAL CHEMICAL INDUSTRIES PLC, priority 1978, dated 1980)

Tested on: skin
Test: Evaluation of emollients: test lotion rated by a panel
Format: in vivo, persons
Procedure: The following basic composition is prepared:
The emollient to be tested is stirred with the other ingredients of the oil phase while heating to 70°C. Meanwhile, ingredients of the water phase are stirred and heated to 72°C. The water phase is then added gradually to the stirred oil phase, and the total mixture is stirred while it cools to room temperature. The emulsion (lotion or cream) is allowed to age for 48 hours at room temperature before evaluation.
For evaluation the subject applies a small amount of the lotion to the inner arm, rubs it into the skin and rates five characteristics: ease of application, moistness, smoothness, greasiness and tackiness. Numerical values are given as follows: poor = 0, average or "not sure" = 1, and good = 2. This is done by an experienced panel of 10 persons and ratings for each emollient are the mean for the 10 subjects. With this system, the highest possible rating is 10; the average emollient has a rating of 5; and the worst score is zero. Most of the emollients of the present invention have ratings well above 5.
Specific examples of acetals of fatty aldehydes are listed following under the name of the polyol. The aldehyde in each case was the mixed C13 and C15 aldehyde used in Example 1.

[1] = 0-10 scale, five characteristics (ease of application, moistness, smoothness, greasiness, tackiness) each rated 0-2, mean of 10 subjects, 7.0 parts emollient in lotion aged 48 hours, rubbed into inner arm

Compound | Emollient Rating (in vivo) | Emollient Rating [1]
OCCO [Ethylene glycol] | 8.6 | –
OCC(CO)(CO)CO [Pentaerythritol] | – | 6.3
OCC(O)CO [Glycerol] | – | 5.8
OCCCO [1,3-Propanediol] | – | 6.3
CC(O)CO (centres unmarked) [1,2-Propylene glycol] | – | 8.1
